One data set can be described thus: Volume of distribution at steady state in AP Wistar rat at 2.1 to 4.0 mg/kg, iv and 8.1 to 8.9 mg/kg, po. Particulars: in vivo, read-out: Vdss. The class given is ADME, organism-based.
`O=C(NC1Cc2ccccc2N(C[C@@H](O)CO)C1=O)c1cc2cc(Cl)sc2[nH]1` (mixture of isomers): the Vd was determined as 1.9 L/kg.

As to `NC(=O)CN1C(=O)C(NC(=O)c2cc3cc(Cl)sc3[nH]2)Cc2ccccc21` (stereo not given), the Vd is 1.4 L/kg.

In the case of `O=C(CN1C(=O)C(NC(=O)c2cc3cc(Cl)sc3[nH]2)Cc2ccccc21)NCCO` (stereo not given), the Vd amounted to 1.4 L/kg.

In the case of `O=C(NC1Cc2ccccc2N(CC(CO)CO)C1=O)c1cc2cc(Cl)sc2[nH]1` (racemic), the Vd stood at 2.2 L/kg.

A further data set in a line: Clearance in AP Wistar rat at 2.1 to 4.0 mg/kg, iv and 8.1 to 8.9 mg/kg, po. The format is ADME, organism-based. Particulars: in vivo.
In the case of `O=C(NC1Cc2ccccc2N(C[C@@H](O)CO)C1=O)c1cc2cc(Cl)sc2[nH]1` (mixture of isomers), the clearance stood at 2.4 mL/min/kg.

With `NC(=O)CN1C(=O)C(NC(=O)c2cc3cc(Cl)sc3[nH]2)Cc2ccccc21` (stereo not given), the clearance came out at 1.2 mL/min/kg.

Take `O=C(CN1C(=O)C(NC(=O)c2cc3cc(Cl)sc3[nH]2)Cc2ccccc21)NCCO` (stereo not given): the clearance came out at 5.1 mL/min/kg.

On to `O=C(NC1Cc2ccccc2N(CC(CO)CO)C1=O)c1cc2cc(Cl)sc2[nH]1` (racemic), for which the clearance amounted to 2.5 mL/min/kg.

A further data set is described as follows: Half life in AP Wistar rat at 2.1 to 4.0 mg/kg, iv and 8.1 to 8.9 mg/kg, po. Particulars: in vivo. The class given is ADME, organism-based.
In general, half-life refers to the time needed for the level to fall by half in the phase considered. A lower half-life goes with fast loss. The compound `O=C(NC1Cc2ccccc2N(C[C@@H](O)CO)C1=O)c1cc2cc(Cl)sc2[nH]1` (mixture of isomers) gave a half-life of 660 min.

In turn, `NC(=O)CN1C(=O)C(NC(=O)c2cc3cc(Cl)sc3[nH]2)Cc2ccccc21` (stereo not given) gave a half-life of 960 min.

Compound `O=C(CN1C(=O)C(NC(=O)c2cc3cc(Cl)sc3[nH]2)Cc2ccccc21)NCCO` (stereo not given) had a half-life of 324 min.

Take `O=C(NC1Cc2ccccc2N(CC(CO)CO)C1=O)c1cc2cc(Cl)sc2[nH]1` (racemic): the half-life is 780 min. Against the preceding compound, the half-life is about 2.4-fold higher.

The nature of another data set: Bioavailability in AP Wistar rat at 2.1 to 4.0 mg/kg, iv and 8.1 to 8.9 mg/kg, po. Particulars: in vivo, at 8.1 to 8.9 mg/kg. The format is ADME, organism-based.
A word on the bioavailability: it is dose-corrected exposure relative to a reference, in per cent. A higher bioavailability goes with much systemic uptake. `O=C(NC1Cc2ccccc2N(C[C@@H](O)CO)C1=O)c1cc2cc(Cl)sc2[nH]1` (mixture of isomers) showed a bioavailability of over 100%.

In turn, `NC(=O)CN1C(=O)C(NC(=O)c2cc3cc(Cl)sc3[nH]2)Cc2ccccc21` (stereo not given) came in with a bioavailability of 35%.

Compound `O=C(CN1C(=O)C(NC(=O)c2cc3cc(Cl)sc3[nH]2)Cc2ccccc21)NCCO` (stereo not given) had a bioavailability of 12%.

In turn, `O=C(NC1Cc2ccccc2N(CC(CO)CO)C1=O)c1cc2cc(Cl)sc2[nH]1` (racemic) gave a bioavailability of 41%.

Another data set is described as follows: in vitro. Particulars: human, Caco-2.
By Papp A→B is commonly meant how fast a substance crosses the layer from the apical side. Lower therefore signals slow passage. Turning to `O=C(NC1Cc2ccccc2N(C[C@@H](O)CO)C1=O)c1cc2cc(Cl)sc2[nH]1` (mixture of isomers), the Papp A→B turned out to be 29 ×10⁻⁶ cm/s.

Take `O=C(O)CN1C(=O)C(NC(=O)c2cc3sc(Cl)c(Cl)c3[nH]2)Cc2ccccc21` (stereo not given): the Papp A→B turned out to be 0.3 ×10⁻⁶ cm/s.

The next data set in a line: in vitro. Particulars: human, Caco-2. The source holds these as a separate data set.
One may read the Papp B→A as the apparent permeability from the basolateral to the apical side of a cell layer. `O=C(NC1Cc2ccccc2N(C[C@@H](O)CO)C1=O)c1cc2cc(Cl)sc2[nH]1` (mixture of isomers) showed an apparent permeability from basolateral to apical (Papp B→A) of 29 ×10⁻⁶ cm/s.

For the compound `O=C(O)CN1C(=O)C(NC(=O)c2cc3sc(Cl)c(Cl)c3[nH]2)Cc2ccccc21` (stereo not given), the Papp B→A stood at 11 ×10⁻⁶ cm/s.

Source of the values: ChEMBL document CHEMBL1146283, “Development of potent, orally active 1-substituted-3,4-dihydro-2-quinolone glycogen phosphorylase inhibitors” (Bioorg Med Chem Lett, 2007).
